Experimental data as given in paper PMC5218480 (PLoS ONE, 2017).

Test system: MV-4-11 cells
Assay: Gene expression microarray analysis (Affymetrix PrimeView) and GSEA
Assay type: cell-based, human
Set-up: RFU PODN (11730768_x_at) / Fold change /veh PODN (11730768_x_at) / RFU LINC00158 (11744669_a_at) / Fold change /veh LINC00158 (11744669_a_at) / RFU DUSP10 (11751237_a_at) / Fold change /veh DUSP10 (11751237_a_at) / RFU ID3 (11757404_x_at) / Fold change /veh ID3 (11757404_x_at) / RFU PLEKHG5 (11737974_s_at) / Fold change /veh PLEKHG5 (11737974_s_at) / RFU LRRC4B (11730491_at) / Fold change /veh LRRC4B (11730491_at) / RFU GIMAP4 (11747438_a_at) / Fold change /veh GIMAP4 (11747438_a_at) / RFU KRT8 (11758183_x_at) / Fold change /veh KRT8 (11758183_x_at) / RFU CNN1 (11734310_a_at) / Fold change /veh CNN1 (11734310_a_at) / RFU VPS37D (11726825_at) / Fold change /veh VPS37D (11726825_at) / RFU C10orf10 (11716522_x_at) / Fold change /veh C10orf10 (11716522_x_at) / RFU KIR2DL2 /// KIR2DL4 /// KIR2DL5A /// KIR2DL5B /// KIR2DS1 /// KIR2DS2 /// KIR2DS3 /// KIR2DS4 /// KIR3DL3 /// KIR3DL3 /// KIR3DS1 (11738374_at) / Fold change /veh KIR2DL2 /// KIR2DL4 /// KIR2DL5A /// KIR2DL5B /// KIR2DS1 /// KIR2DS2 /// KIR2DS3 /// KIR2DS4 /// KIR3DL3 /// KIR3DL3 /// KIR3DS1 (11738374_at) / RFU C1QL1 (11718748_at) / Fold change /veh C1QL1 (11718748_at) / RFU TMPRSS4 (11747572_a_at) / Fold change /veh TMPRSS4 (11747572_a_at) / RFU HAMP (11756126_x_at) / Fold change /veh HAMP (11756126_x_at) / RFU RNFT2 (11725882_a_at) / Fold change /veh RNFT2 (11725882_a_at) / RFU NR4A2 (11747474_a_at) / Fold change /veh NR4A2 (11747474_a_at) / RFU ABCC12 (11746883_a_at) / Fold change /veh ABCC12 (11746883_a_at) / RFU TMEM136 (11760407_x_at) / Fold change /veh TMEM136 (11760407_x_at) / RFU CLDN22 /// WWC2 (11732394_at) / Fold change /veh CLDN22 /// WWC2 (11732394_at) / RFU HLA-DPB1 (11760878_x_at) / Fold change /veh HLA-DPB1 (11760878_x_at) / RFU SPINT1 (11716480_a_at) / Fold change /veh SPINT1 (11716480_a_at) / RFU GAP43 (11754022_s_at) / Fold change /veh GAP43 (11754022_s_at) / RFU A4GNT (11735810_at) / Fold change /veh A4GNT (11735810_at) / RFU PRB3 (11715151_x_at) / Fold change /veh PRB3 (11715151_x_at) / RFU TUBB4B (11761932_at) / Fold change /veh TUBB4B (11761932_at) / RFU CAPN14 (11732068_a_at) / Fold change /veh CAPN14 (11732068_a_at) / RFU TMCC2 (11721928_a_at) / Fold change /veh TMCC2 (11721928_a_at) / RFU IRGQ (11745062_a_at) / Fold change /veh IRGQ (11745062_a_at) / RFU FAM174B (11720279_a_at) / Fold change /veh FAM174B (11720279_a_at) / RFU TMPRSS4 (11748680_a_at) / Fold change /veh TMPRSS4 (11748680_a_at) / RFU FAM212B (11763350_a_at) / Fold change /veh FAM212B (11763350_a_at) / RFU PLEKHG5 (11743358_a_at) / Fold change /veh PLEKHG5 (11743358_a_at) / RFU ZSCAN30 (11745921_a_at) / Fold change /veh ZSCAN30 (11745921_a_at) / RFU CMKLR1 (11741424_a_at) / Fold change /veh CMKLR1 (11741424_a_at) / RFU LOC101060620 /// MAPK8IP1 (11723275_at) / Fold change /veh LOC101060620 /// MAPK8IP1 (11723275_at) / RFU SPTSSB (11747773_x_at) / Fold change /veh SPTSSB (11747773_x_at) / RFU PRSS12 (11739890_at) / Fold change /veh PRSS12 (11739890_at) / RFU BIN1 (11741810_x_at) / Fold change /veh BIN1 (11741810_x_at) / RFU WNT11 (11732464_a_at) / Fold change /veh WNT11 (11732464_a_at) / RFU C10orf10 (11716521_a_at) / Fold change /veh C10orf10 (11716521_a_at) / RFU C5orf56 (11738089_at) / Fold change /veh C5orf56 (11738089_at) / RFU CYB561 (11721691_x_at) / Fold change /veh CYB561 (11721691_x_at) / RFU ANKRD19P (11752326_a_at) / Fold change /veh ANKRD19P (11752326_a_at) / RFU OR2T12 /// OR2T33 /// OR2T8 (11738714_s_at) / Fold change /veh OR2T12 /// OR2T33 /// OR2T8 (11738714_s_at) / RFU VCAN (11748164_a_at) / Fold change /veh VCAN (11748164_a_at) / RFU JSRP1 (11732532_at) / Fold change /veh JSRP1 (11732532_at) / RFU KRTAP10-11 (11738290_x_at) / Fold change /veh KRTAP10-11 (11738290_x_at) / RFU MYO3A (11730013_a_at) / Fold change /veh MYO3A (11730013_a_at) / RFU EBF3 (11725865_a_at) / Fold change /veh EBF3 (11725865_a_at) / RFU CAMK2N1 (11719241_x_at) / Fold change /veh CAMK2N1 (11719241_x_at) / RFU C5orf56 (11738088_a_at) / Fold change /veh C5orf56 (11738088_a_at) / RFU OLFML3 (11715873_a_at) / Fold change /veh OLFML3 (11715873_a_at) / RFU LOC100653217 /// NTM (11731650_a_at) / Fold change /veh LOC100653217 /// NTM (11731650_a_at) / RFU MAPK11 (11762145_a_at) / Fold change /veh MAPK11 (11762145_a_at) / RFU FIZ1 (11724087_x_at) / Fold change /veh FIZ1 (11724087_x_at) / RFU OASL (11726364_x_at) / Fold change /veh OASL (11726364_x_at) / RFU SOX15 (11748057_x_at) / Fold change /veh SOX15 (11748057_x_at) / RFU CD79A (11719716_a_at) / Fold change /veh CD79A (11719716_a_at) / RFU HIST1H1D (11736915_at) / Fold change /veh HIST1H1D (11736915_at) / RFU CASKIN2 (11723855_a_at) / Fold change /veh CASKIN2 (11723855_a_at) / RFU LOC730098 (11760151_x_at) / Fold change /veh LOC730098 (11760151_x_at) / RFU OR4N2 (11742367_at) / Fold change /veh OR4N2 (11742367_at) / RFU PRRT2 (11749266_a_at) / Fold change /veh PRRT2 (11749266_a_at) / RFU SNX32 (11753110_a_at) / Fold change /veh SNX32 (11753110_a_at) / RFU CDHR5 (11726645_a_at) / Fold change /veh CDHR5 (11726645_a_at) / RFU RCAN1 (11760418_a_at) / Fold change /veh RCAN1 (11760418_a_at) / RFU FAM167A (11723789_a_at) / Fold change /veh FAM167A (11723789_a_at) / RFU FAM26E (11764081_at) / Fold change /veh FAM26E (11764081_at) / RFU ISYNA1 (11749810_s_at) / Fold change /veh ISYNA1 (11749810_s_at) / RFU ACY1 (11761880_at) / Fold change /veh ACY1 (11761880_at) / RFU 11764098_at / Fold change /veh 11764098_at / RFU SAMD14 (11745864_x_at) / Fold change /veh SAMD14 (11745864_x_at) / RFU NPB (11741838_a_at) / Fold change /veh NPB (11741838_a_at) / RFU TMPRSS6 (11731388_a_at) / Fold change /veh TMPRSS6 (11731388_a_at) / RFU KRTAP10-2 (11738614_at) / Fold change /veh KRTAP10-2 (11738614_at) / RFU ARHGAP8 /// PRR5-ARHGAP8 (11727945_x_at) / Fold change /veh ARHGAP8 /// PRR5-ARHGAP8 (11727945_x_at) / RFU KRTAP5-7 /// NADSYN1 (11734609_at) / Fold change /veh KRTAP5-7 /// NADSYN1 (11734609_at) / RFU RASL12 (11751679_a_at) / Fold change /veh RASL12 (11751679_a_at) / RFU CDKN2B (11736163_a_at) / Fold change /veh CDKN2B (11736163_a_at) / RFU PRF1 (11729649_at) / Fold change /veh PRF1 (11729649_at) / RFU, ZNF638 /// ZNF638-IT1 / Fold change vs veh, ZNF638 /// ZNF638-IT1 / RFU, PANK3 / Fold change vs veh, PANK3 / RFU, SH3YL1 / Fold change vs veh, SH3YL1 / RFU, ZEB2 / Fold change vs veh, ZEB2 / RFU, NRIP1 / Fold change vs veh, NRIP1 / RFU, PTTG1IP / Fold change vs veh, PTTG1IP / RFU, CAPN2 / Fold change vs veh, CAPN2 / RFU, MED14 / Fold change vs veh, MED14 / RFU, SNORA58 / Fold change vs veh, SNORA58 / RFU, C1orf63 / Fold change vs veh, C1orf63 / RFU, LRRFIP1 / Fold change vs veh, LRRFIP1 / RFU, NDUFAF7 / Fold change vs veh, NDUFAF7 / RFU, SLC12A2 / Fold change vs veh, SLC12A2 / RFU, IBTK / Fold change vs veh, IBTK / RFU, ESF1 / Fold change vs veh, ESF1 / Fold change vs veh, TMEM50B / RFU, TAOK1 / Fold change vs veh, TAOK1 / RFU, ACBD3 / Fold change vs veh, ACBD3 / RFU, TMA16 / Fold change vs veh, TMA16 / RFU, RWDD3 / Fold change vs veh, RWDD3 / RFU, BCAT1 / Fold change vs veh, BCAT1 / RFU, EDEM3 / Fold change vs veh, EDEM3 / RFU, TMEM33 / Fold change vs veh, TMEM33 / RFU, WDR75 / Fold change vs veh, WDR75 / RFU, AHCTF1 / Fold change vs veh, AHCTF1 / RFU, TFRC / Fold change vs veh, TFRC / RFU, ZDHHC17 / Fold change vs veh, ZDHHC17 / RFU, NOM1 / Fold change vs veh, NOM1 / RFU, ARL8B / Fold change vs veh, ARL8B / RFU, ZBTB11 / Fold change vs veh, ZBTB11 / RFU, TAMM41 / Fold change vs veh, TAMM41 / RFU, KIAA1704 /// LOC100996395 / Fold change vs veh, KIAA1704 /// LOC100996395 / RFU, ING1 / Fold change vs veh, ING1 / RFU, TRMT61B / Fold change vs veh, TRMT61B / RFU, FUBP3 / Fold change vs veh, FUBP3 / RFU, TP53 / Fold change vs veh, TP53 / RFU, TNKS2 / Fold change vs veh, TNKS2 / RFU, ZFP14 / Fold change vs veh, ZFP14 / RFU, ACTR2 / Fold change vs veh, ACTR2 / RFU, PPP3R1 / Fold change vs veh, PPP3R1 / RFU, PIK3R1 / Fold change vs veh, PIK3R1 / RFU, HNRNPA1 / Fold change vs veh, HNRNPA1 / RFU, RNF170 / Fold change vs veh, RNF170 / RFU, ZNF28 / Fold change vs veh, ZNF28 / RFU, RNGTT / Fold change vs veh, RNGTT / RFU, OGT / Fold change vs veh, OGT / RFU, BRD1 / Fold change vs veh, BRD1 / RFU, MARS / Fold change vs veh, MARS / RFU, ZNF655 / Fold change vs veh, ZNF655 / RFU, FAHD1 / Fold change vs veh, FAHD1 / RFU, BDP1 / Fold change vs veh, BDP1 / RFU, LRRCC1 / Fold change vs veh, LRRCC1 / RFU, ARID1A / Fold change vs veh, ARID1A / RFU, ZNF146 / Fold change vs veh, ZNF146 / RFU, ZNF330 / Fold change vs veh, ZNF330 / RFU, GPN3 / Fold change vs veh, GPN3 / RFU, C9orf123 / Fold change vs veh, C9orf123 / RFU, N4BP2L2 / Fold change vs veh, N4BP2L2 / RFU, ARFIP1 / Fold change vs veh, ARFIP1 / RFU, FAM179B / Fold change vs veh, FAM179B / RFU, BCL10 / Fold change vs veh, BCL10 / RFU, UHRF1BP1L / Fold change vs veh, UHRF1BP1L / RFU, BET1 / Fold change vs veh, BET1 / RFU, CNOT2 / Fold change vs veh, CNOT2 / RFU, ZNF268 / Fold change vs veh, ZNF268 / Fold change vs veh, ZNF507 / RFU, DGCR2 / Fold change vs veh, DGCR2 / RFU, WDSUB1 / Fold change vs veh, WDSUB1 / Fold change vs veh, HSP90B1 /// MIR3652 / RFU, ADSS / Fold change vs veh, ADSS / RFU, GK / Fold change vs veh, GK / RFU, ZNF148 / Fold change vs veh, ZNF148 / RFU, TAF9 / Fold change vs veh, TAF9 / RFU, SLC1A5 / Fold change vs veh, SLC1A5 / RFU, SLMO2 / Fold change vs veh, SLMO2 / RFU, ABCC4 / Fold change vs veh, ABCC4 / RFU, LOC101060439 /// RAP1B / Fold change vs veh, LOC101060439 /// RAP1B / RFU, RFX7 / Fold change vs veh, RFX7 / RFU, GTPBP10 / Fold change vs veh, GTPBP10 / RFU, CNEP1R1 / Fold change vs veh, CNEP1R1 / RFU, BIVM-ERCC5 /// ERCC5 / Fold change vs veh, BIVM-ERCC5 /// ERCC5 / RFU, ILF3 / Fold change vs veh, ILF3 / RFU 11762660_at / Fold change /veh 11762660_at / RFU VCAN (11757783_s_at) / Fold change /veh VCAN (11757783_s_at) / RFU DDX43 (11728927_at) / Fold change /veh DDX43 (11728927_at) / RFU KRT8 (11758188_x_at) / Fold change /veh KRT8 (11758188_x_at) / RFU NKD1 (11759106_at) / Fold change /veh NKD1 (11759106_at) / RFU SRD5A1 (11742802_a_at) / Fold change /veh SRD5A1 (11742802_a_at) / RFU TPSAB1 /// TPSB2 (11721975_s_at) / Fold change /veh TPSAB1 /// TPSB2 (11721975_s_at) / RFU GSTM3 (11746129_a_at) / Fold change /veh GSTM3 (11746129_a_at) / RFU IL23R (11737362_x_at) / Fold change /veh IL23R (11737362_x_at) / RFU TMEM51 (11727254_a_at) / Fold change /veh TMEM51 (11727254_a_at) / RFU PIWIL2 (11732686_x_at) / Fold change /veh PIWIL2 (11732686_x_at) / RFU ORM1 (11744905_x_at) / Fold change /veh ORM1 (11744905_x_at) / RFU CCDC152 (11743942_at) / Fold change /veh CCDC152 (11743942_at) / RFU ECM1 (11717891_a_at) / Fold change /veh ECM1 (11717891_a_at) / RFU IL23R (11748794_a_at) / Fold change /veh IL23R (11748794_a_at) / RFU TNFAIP8L3 (11732012_x_at) / Fold change /veh TNFAIP8L3 (11732012_x_at) / RFU MBOAT4 (11741988_at) / Fold change /veh MBOAT4 (11741988_at) / RFU 11764193_at / Fold change /veh 11764193_at / RFU TMEM53 (11763286_at) / Fold change /veh TMEM53 (11763286_at) / RFU MAGEB2 (11727129_at) / Fold change /veh MAGEB2 (11727129_at) / RFU TMEM200A (11744735_a_at) / Fold change /veh TMEM200A (11744735_a_at) / RFU CCDC152 (11751479_a_at) / Fold change /veh CCDC152 (11751479_a_at) / RFU FAM211A (11726209_a_at) / Fold change /veh FAM211A (11726209_a_at) / RFU RGS16 (11746705_a_at) / Fold change /veh RGS16 (11746705_a_at) / RFU VCAN (11755009_s_at) / Fold change /veh VCAN (11755009_s_at) / RFU RHOB (11743442_s_at) / Fold change /veh RHOB (11743442_s_at) / RFU RGS16 (11720943_a_at) / Fold change /veh RGS16 (11720943_a_at) / RFU RGS16 (11720944_at) / Fold change /veh RGS16 (11720944_at) / RFU, VPS4B / Fold change vs veh, VPS4B / RFU, CREB1 / Fold change vs veh, CREB1 / RFU, DNAJC13 / Fold change vs veh, DNAJC13 / RFU, GNAQ / Fold change vs veh, GNAQ / RFU, CDK5R1 / Fold change vs veh, CDK5R1 / RFU, ZRANB3 / Fold change vs veh, ZRANB3 / RFU, CUL4A / Fold change vs veh, CUL4A / RFU, CCNY / Fold change vs veh, CCNY / RFU, UFL1 / Fold change vs veh, UFL1 / RFU, COG3 / Fold change vs veh, COG3 / RFU, DIAPH2 / Fold change vs veh, DIAPH2 / RFU, SKA2 / Fold change vs veh, SKA2 / RFU, AFF3 / Fold change vs veh, AFF3 / RFU, LMF1 / Fold change vs veh, LMF1 / RFU, IPO11 / Fold change vs veh, IPO11 / RFU, DFFB / Fold change vs veh, DFFB / RFU, FOXP1 / Fold change vs veh, FOXP1 / RFU, CARD8 / Fold change vs veh, CARD8 / RFU, STRN3 / Fold change vs veh, STRN3 / RFU, ADK / Fold change vs veh, ADK / RFU, RASSF2 / Fold change vs veh, RASSF2 / RFU, WIPF1 / Fold change vs veh, WIPF1 / RFU, LARP1B / Fold change vs veh, LARP1B / RFU, RASA1 / Fold change vs veh, RASA1 / RFU, RB1 / Fold change vs veh, RB1 / RFU, PPFIA1 / Fold change vs veh, PPFIA1 / RFU, MAT2A / Fold change vs veh, MAT2A / RFU, CCT5 / Fold change vs veh, CCT5 / RFU, WDR92 / Fold change vs veh, WDR92 / RFU, CUX1 / Fold change vs veh, CUX1 / RFU, TTC7A / Fold change vs veh, TTC7A / RFU, TMEM135 / Fold change vs veh, TMEM135 / RFU, DEPTOR / Fold change vs veh, DEPTOR / RFU, CPM / Fold change vs veh, CPM / RFU, DNAJB6 / Fold change vs veh, DNAJB6 / RFU, CACNA2D3 / Fold change vs veh, CACNA2D3 / RFU, DTX4 / Fold change vs veh, DTX4 / RFU, TFCP2 / Fold change vs veh, TFCP2 / RFU, GMCL1 /// GMCL1P1 / Fold change vs veh, GMCL1 /// GMCL1P1 / RFU, AEBP2 / Fold change vs veh, AEBP2 / RFU, SNHG1 /// SNORD22 /// SNORD25 /// SNORD26 /// SNORD27 /// SNORD28 /// SNORD29 /// SNORD31 / Fold change vs veh, SNHG1 /// SNORD22 /// SNORD25 /// SNORD26 /// SNORD27 /// SNORD28 /// SNORD29 /// SNORD31 / Fold change (Aza/veh), C12orf56 (ProbeSet 11735607_a_at) / Fold change (ACY-1035/veh), C12orf56 (ProbeSet 11735607_a_at) / Fold change (Aza/veh), FGFR1OP (ProbeSet 11751329_s_at) / Fold change (ACY-1035/veh), FGFR1OP (ProbeSet 11751329_s_at) / Fold change (Aza/veh), VPS36 (ProbeSet 11739960_a_at) / Fold change (ACY-1035/veh), VPS36 (ProbeSet 11739960_a_at) / RFU SYPL1 (11715823_x_at) / Fold change /veh SYPL1 (11715823_x_at) / RFU IGFBP7 (11715501_s_at) / Fold change /veh IGFBP7 (11715501_s_at) / RFU REEP3 (11722064_at) / Fold change /veh REEP3 (11722064_at) / RFU IGLL1 (11728026_x_at) / Fold change /veh IGLL1 (11728026_x_at): dose or concentration left out as unconfirmed
Settings: ProbeSet 11723944_a_at; LIST B

## Nc1ncn([C@@H]2O[C@H](CO)[C@@H](O)[C@H]2O)c(=O)n1 [azacitidine]
  Fold change vs veh, PTTG1IP: 0.86
